The supplement of paper PMC10307832

Key:
Test in all cases: relative viability (nuclei count vs DMSO), 5 days (fraction); higher = more cells survive
Elesclomol + Luminespib = compound: CN(NC(=O)CC(=O)NN(C)C(=S)c1ccccc1)C(=S)c1ccccc1 [Elesclomol] + CCNC(=O)c1noc(-c2cc(C(C)C)c(O)cc2O)c1-c1ccc(CN2CCOCC2)cc1 [Luminespib] (partner 0.01 µM)
Procedure, shortened: (§1)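 Lung cancer cell lines in 1536-well plates got either a single drug or a fixed anchor-drug dose together with five library-drug doses (not always all listed) in √10 steps, by pin tool, on the day after seeding. Nuclei were counted after 5 days, and relative viability is the treated-to-vehicle ratio of nuclei counts. Values are medians of duplicate plates.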

Elesclomol + Pictilisib = compound: CN(NC(=O)CC(=O)NN(C)C(=S)c1ccccc1)C(=S)c1ccccc1 [Elesclomol] + CS(=O)(=O)N1CCN(Cc2cc3nc(-c4cccc5[nH]ncc45)nc(N4CCOCC4)c3s2)CC1 [Pictilisib] (partner 1 µM)
Procedure, shortened: as §1

Elesclomol + Crizotinib = compound: CN(NC(=O)CC(=O)NN(C)C(=S)c1ccccc1)C(=S)c1ccccc1 [Elesclomol] + C[C@@H](Oc1cc(-c2cnn(C3CCNCC3)c2)cnc1N)c1c(Cl)ccc(F)c1Cl [Crizotinib] (partner 1 µM)
Procedure, shortened: as §1

Elesclomol + Linsitinib = compound: CN(NC(=O)CC(=O)NN(C)C(=S)c1ccccc1)C(=S)c1ccccc1 [Elesclomol] + C[C@]1(O)C[C@@H](c2nc(-c3ccc4ccc(-c5ccccc5)nc4c3)c3c(N)nccn32)C1 [Linsitinib] (partner 1 µM)
Procedure, shortened: as §1

Elesclomol + Phenformin = compound: CN(NC(=O)CC(=O)NN(C)C(=S)c1ccccc1)C(=S)c1ccccc1 [Elesclomol] + N=C(N)NC(=N)NCCc1ccccc1 [Phenformin] (partner 250 µM)
Procedure, shortened: as §1

Cell Line	relative viability (Elesclomol + Luminespib; first compound 0.003162 µM)	relative viability (Elesclomol + Luminespib; first compound 0.01 µM)	relative viability (Elesclomol + Luminespib; first compound 0.03162 µM)	relative viability (Elesclomol + Luminespib; first compound 0.1 µM)	relative viability (Elesclomol + Pictilisib; first compound 0.003162 µM)	relative viability (Elesclomol + Pictilisib; first compound 0.01 µM)	relative viability (Elesclomol + Pictilisib; first compound 0.03162 µM)	relative viability (Elesclomol + Pictilisib; first compound 0.1 µM)	relative viability (Elesclomol + Crizotinib; first compound 0.003162 µM)	relative viability (Elesclomol + Crizotinib; first compound 0.01 µM)	relative viability (Elesclomol + Crizotinib; first compound 0.03162 µM)	relative viability (Elesclomol + Crizotinib; first compound 0.1 µM)	relative viability (Elesclomol + Linsitinib; first compound 0.003162 µM)	relative viability (Elesclomol + Linsitinib; first compound 0.01 µM)	relative viability (Elesclomol + Linsitinib; first compound 0.03162 µM)	relative viability (Elesclomol + Linsitinib; first compound 0.1 µM)	relative viability (Elesclomol + Phenformin; first compound 0.003162 µM)	relative viability (Elesclomol + Phenformin; first compound 0.01 µM)	relative viability (Elesclomol + Phenformin; first compound 0.03162 µM)	relative viability (Elesclomol + Phenformin; first compound 0.1 µM)
UMC-11	1.04	1.02	0.604	0.413	0.827	0.67	0.561	0.44	0.649	0.445	0.343	0.183	1.02	1.05	0.672	0.615	0.312	0.343	0.328	0.31
LCLC-103H	0.903	0.734	1.01	0.435	0.628	0.471	0.736	0.457	0.948	0.937	0.993	1.02	1.11	1.02	1.01	1.07	0.355	0.275	0.384	0.292
NCI-H1734	0.189	0.14	0.122	0.108	0.511	0.328	0.248	0.117	0.66	0.586	0.382	0.0924	0.907	0.745	0.8	0.154	0.369	0.343	0.38	0.191
EKVX	0.831	0.539	0.169	0.145	0.386	0.249	0.176	0.157	0.741	0.486	0.376	0.21	0.915	0.6	0.239	0.17	0.219	0.225	0.201	0.172
HARA	0.545	0.669	0.1	0.0826	0.548	0.325	0.363	0.081	1.06	0.799	0.987	0.368	1.11	0.927	0.872	0.21	0.506	0.413	0.475	0.169
EMC-BAC-2	1.23	1.04	0.535	0.383	0.606	0.374	0.48	0.316	0.762	0.718	0.698	0.406	0.851	0.807	0.699	0.455	0.552	0.372	0.414	0.266
PC-14	0.11	0.0979	0.0814	0.0429	0.417	0.0984	0.05	0.0156	0.918	0.526	0.203	0.0548	0.98	0.85	0.0931	0.0455	0.404	0.16	0.0586	0.023
NCI-H520	0.238	0.188	0.193	0.164	0.255	0.279	0.22	0.132	0.69	0.713	0.233	0.0848	1.04	0.912	0.354	0.0801	0.555	0.535	0.61	0.105
